One series has as its target T1, D4 (hD4.2 receptor) (Homo sapiens, UniProt P21917, DEL265-296).
T1 construct: purchased BioSignal Packard Inc., Montreal, Canada
T1 sequence (P21917 with tags, fused parts or gaps DEL265-296): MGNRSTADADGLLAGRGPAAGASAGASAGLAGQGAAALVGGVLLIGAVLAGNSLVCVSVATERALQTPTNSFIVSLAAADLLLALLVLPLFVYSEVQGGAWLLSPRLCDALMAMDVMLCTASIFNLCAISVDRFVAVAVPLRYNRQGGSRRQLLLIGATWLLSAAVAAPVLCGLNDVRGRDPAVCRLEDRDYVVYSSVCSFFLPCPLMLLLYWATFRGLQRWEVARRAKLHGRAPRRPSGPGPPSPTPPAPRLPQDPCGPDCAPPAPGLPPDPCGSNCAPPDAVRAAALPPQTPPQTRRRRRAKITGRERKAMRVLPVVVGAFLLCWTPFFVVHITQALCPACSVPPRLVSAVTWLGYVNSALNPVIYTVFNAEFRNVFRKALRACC
Briefly: Radioligand binding assay, dopamine D4. The note with it: [3H] YM-09151-2 0.06 nM; read-out: Binding affinity IC50 D4. Here is the method: (§1) Radioligand binding assays for dopamine receptor family (D1, D2 and D3) were performed according to the protocols provided by the manufacturer of receptor membranes (BioSignal Packard Inc., Montreal, Canada). The radioligands used were [^3H] spiperone (for hD2L and hD3 receptors, 1 nM) and [^3H] YM-09151-2 (hD4.2 receptor, 0.06 nM). Briefly, the buffer used in the D1, D2 and D3 receptor binding assay was 50 mM Tris-HCl (pH 7.4), containing 10 mM MgCl2 and 1 mM EDTA, or 50 mM Tris-HCl (pH 7.4), containing 5 mM MgCl2, 5 mM EDTA, 5 mM KCl, 1.5 mM CaCl2 and 120 mM NaCl. For [^3H] YM-09151-2 receptor binding assays, 50 mM Tris-HCl (pH 7.4) containing 5 mM MgCl2, 5 mM EDTA, 5 mM KCl and 1.5 mM CaCl2, was used as a buffer. Nonspecific binding was determined with haloperidol (10 μM) for D2 and D3 and clozapine (10 μM) for D4 receptors.
(§2) Competition binding studies were carried out with 7-8 concentrations of the test compound run in duplicate tubes, and isotherms from three assays were calculated by computerized nonlinear regression analysis (GraphPad Prism Program, San Diego, […]) to yield median inhibitory concentration (IC50) values.

The target of a further series is D3 (hD3 receptor) (Homo sapiens, UniProt P35462). The series is described as follows: Radioligand binding assay, dopamine D3.
In another series the target is T2, D2 (hD2L receptor) (Homo sapiens, UniProt P14416).
T2 construct: purchased BioSignal Packard Inc., Montreal, Canada
Briefly: Radioligand binding assay, dopamine D2. The following applies: [3H] spiperone 1 nM; read-out: Binding affinity IC50 D2. Here is the method:
as §1, §2

Series [1] addresses human serotonin 5-HT6 receptor (Homo sapiens, UniProt P50406). Briefly: [3H]LSD binding assay for cloned 5-HT6 receptors.
Series [2] deals with 5-HT2a (human recombinant receptor, CHO-K1) (Homo sapiens, UniProt P28223). Briefly: Radioligand binding assay, 5-HT2a.
The target in series [3] is T3, 5-HT2c (human recombinant receptor, CHO-K1) (Homo sapiens, UniProt P28335).
T3 sequence (P28335 33-458): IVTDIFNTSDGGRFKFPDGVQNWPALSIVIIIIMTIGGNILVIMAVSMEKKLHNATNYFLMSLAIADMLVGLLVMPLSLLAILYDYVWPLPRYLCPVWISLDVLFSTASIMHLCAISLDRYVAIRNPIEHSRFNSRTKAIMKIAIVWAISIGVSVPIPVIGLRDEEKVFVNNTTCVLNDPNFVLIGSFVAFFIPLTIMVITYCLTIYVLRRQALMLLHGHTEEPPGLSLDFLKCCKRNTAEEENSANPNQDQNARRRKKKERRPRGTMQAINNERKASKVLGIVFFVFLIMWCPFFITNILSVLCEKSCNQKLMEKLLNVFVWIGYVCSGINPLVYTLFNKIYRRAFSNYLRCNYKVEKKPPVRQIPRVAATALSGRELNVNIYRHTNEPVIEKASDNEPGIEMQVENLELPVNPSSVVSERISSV
The series is described as follows: Radioligand binding assay, 5-HT2c.

Series [4] addresses 5-HT7 (human recombinant receptor, CHO-K1) (Homo sapiens, UniProt P34969). The series is described as follows: Radioligand binding assay, 5-HT7.
Another series has as its target D1 receptor (Homo sapiens, UniProt P21728). Briefly: Radioligand binding assay, dopamine D1.
Series [5] deals with T4, 5-HT1a (human recombinant receptor, CHO-K1) (Homo sapiens, UniProt P08908).
T4 sequence (P08908 1-422): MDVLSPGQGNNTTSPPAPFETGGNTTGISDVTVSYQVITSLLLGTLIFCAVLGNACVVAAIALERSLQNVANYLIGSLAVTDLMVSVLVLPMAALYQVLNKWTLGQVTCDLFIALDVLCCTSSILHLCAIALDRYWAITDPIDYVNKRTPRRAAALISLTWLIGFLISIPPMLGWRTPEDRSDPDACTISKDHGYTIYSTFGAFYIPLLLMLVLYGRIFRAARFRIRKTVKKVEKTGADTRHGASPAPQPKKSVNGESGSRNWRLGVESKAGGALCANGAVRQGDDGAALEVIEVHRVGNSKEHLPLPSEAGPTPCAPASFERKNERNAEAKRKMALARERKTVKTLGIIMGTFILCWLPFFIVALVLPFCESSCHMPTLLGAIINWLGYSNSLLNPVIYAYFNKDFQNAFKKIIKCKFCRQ
Briefly: Radioligand binding assay, 5-HT1a.

In series [6] the target is T5, HeLa cells transfected with human 5-HT6 receptor (Homo sapiens, UniProt P50406).
T5 construct: expressed in transfected cells; host or cells: HeLa
Briefly: Serotonin-stimulated cAMP accumulation in HeLa cells (EIA). The note with it: for effect on serotonin-stimulated cAMP accumulation (in words): HeLa cells, FIG. 1. The series is classed as cell-based.

In series [7] the test system is apomorphine-induced PPI disruption. The series is described as follows: Apomorphine-induced PPI disruption in rat. The note with it: rat, 2.5, 5, 10 and 20 mg/kg i.p. alone.

The results in this text go back to patent publication US20090203708A1, “NOVEL SUBSTITUTED-1-H-QUINAZOLINE-2,4-DIONE DERIVATIVES, PREPARATION METHOD THEREOF AND PHARMACEUTICAL COMPOSITION CONTAINING THE SAME” (Korea Research Institute of Chemical Technology, priority 2006, published 2009).

Bounds are passed on as bounds.

Sequence of 5-HT2a (human recombinant receptor, CHO-K1) (P28223 whole entry): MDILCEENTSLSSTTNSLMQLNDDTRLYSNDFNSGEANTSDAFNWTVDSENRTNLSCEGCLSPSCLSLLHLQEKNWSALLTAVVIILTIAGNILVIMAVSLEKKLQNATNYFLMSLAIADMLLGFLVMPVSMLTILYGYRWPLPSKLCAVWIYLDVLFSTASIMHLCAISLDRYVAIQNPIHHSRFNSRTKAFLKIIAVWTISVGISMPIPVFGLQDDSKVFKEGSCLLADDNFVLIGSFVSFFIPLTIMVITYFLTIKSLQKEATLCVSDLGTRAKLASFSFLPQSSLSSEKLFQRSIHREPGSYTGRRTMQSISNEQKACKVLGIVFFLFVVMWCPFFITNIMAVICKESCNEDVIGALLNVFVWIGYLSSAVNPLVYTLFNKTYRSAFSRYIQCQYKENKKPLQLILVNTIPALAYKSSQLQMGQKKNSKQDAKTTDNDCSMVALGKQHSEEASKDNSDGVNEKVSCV
Sequence of 5-HT7 (human recombinant receptor, CHO-K1) (P34969 whole entry): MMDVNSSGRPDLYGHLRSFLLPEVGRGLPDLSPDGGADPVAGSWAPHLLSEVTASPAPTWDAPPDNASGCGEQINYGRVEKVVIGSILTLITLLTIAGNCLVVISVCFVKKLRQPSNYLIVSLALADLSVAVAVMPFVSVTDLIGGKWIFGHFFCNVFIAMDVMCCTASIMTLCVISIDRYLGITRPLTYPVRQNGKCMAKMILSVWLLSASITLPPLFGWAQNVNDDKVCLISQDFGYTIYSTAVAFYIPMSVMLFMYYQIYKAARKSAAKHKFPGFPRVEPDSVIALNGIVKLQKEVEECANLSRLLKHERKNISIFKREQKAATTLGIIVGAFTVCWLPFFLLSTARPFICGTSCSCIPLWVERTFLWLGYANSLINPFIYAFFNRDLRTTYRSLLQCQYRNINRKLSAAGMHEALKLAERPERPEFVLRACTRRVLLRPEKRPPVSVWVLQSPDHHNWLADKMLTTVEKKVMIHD
T2 sequence (P14416 whole entry): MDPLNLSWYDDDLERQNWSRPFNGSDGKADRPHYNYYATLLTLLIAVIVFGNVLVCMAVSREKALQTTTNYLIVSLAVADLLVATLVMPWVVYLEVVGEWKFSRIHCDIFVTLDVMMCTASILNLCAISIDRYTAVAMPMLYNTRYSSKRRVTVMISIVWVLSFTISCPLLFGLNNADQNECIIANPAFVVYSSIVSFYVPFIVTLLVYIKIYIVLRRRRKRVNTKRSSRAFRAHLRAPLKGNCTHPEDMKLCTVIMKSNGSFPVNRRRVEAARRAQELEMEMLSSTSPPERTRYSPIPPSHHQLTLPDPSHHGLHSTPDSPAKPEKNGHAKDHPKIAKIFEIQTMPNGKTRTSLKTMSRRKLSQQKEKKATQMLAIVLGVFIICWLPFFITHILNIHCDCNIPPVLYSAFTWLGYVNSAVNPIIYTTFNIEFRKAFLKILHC
Sequence of D1 receptor (P21728 whole entry): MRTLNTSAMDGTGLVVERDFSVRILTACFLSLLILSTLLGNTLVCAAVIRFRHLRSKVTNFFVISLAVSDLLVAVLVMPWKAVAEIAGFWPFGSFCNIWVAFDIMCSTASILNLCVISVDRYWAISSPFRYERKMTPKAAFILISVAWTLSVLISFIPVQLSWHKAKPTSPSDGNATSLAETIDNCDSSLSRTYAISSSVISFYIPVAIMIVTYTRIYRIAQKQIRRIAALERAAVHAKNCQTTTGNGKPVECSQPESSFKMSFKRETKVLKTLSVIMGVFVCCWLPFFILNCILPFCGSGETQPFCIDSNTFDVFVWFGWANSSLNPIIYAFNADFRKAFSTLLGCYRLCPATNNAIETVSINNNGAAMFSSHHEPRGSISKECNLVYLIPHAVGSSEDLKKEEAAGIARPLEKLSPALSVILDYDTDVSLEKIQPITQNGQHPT
Sequence of D3 (hD3 receptor) (P35462 whole entry): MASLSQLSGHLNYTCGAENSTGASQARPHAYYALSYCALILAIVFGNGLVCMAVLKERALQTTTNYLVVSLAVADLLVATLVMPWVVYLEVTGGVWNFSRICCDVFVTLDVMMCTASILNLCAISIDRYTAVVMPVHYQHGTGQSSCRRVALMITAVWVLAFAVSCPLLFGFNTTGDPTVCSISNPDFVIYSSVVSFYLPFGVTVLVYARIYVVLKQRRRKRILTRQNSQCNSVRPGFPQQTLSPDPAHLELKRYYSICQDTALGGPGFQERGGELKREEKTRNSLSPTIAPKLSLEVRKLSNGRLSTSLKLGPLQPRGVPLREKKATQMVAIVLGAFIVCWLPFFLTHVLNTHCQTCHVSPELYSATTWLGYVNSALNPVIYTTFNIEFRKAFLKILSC
Sequence of human serotonin 5-HT6 receptor (P50406 whole entry): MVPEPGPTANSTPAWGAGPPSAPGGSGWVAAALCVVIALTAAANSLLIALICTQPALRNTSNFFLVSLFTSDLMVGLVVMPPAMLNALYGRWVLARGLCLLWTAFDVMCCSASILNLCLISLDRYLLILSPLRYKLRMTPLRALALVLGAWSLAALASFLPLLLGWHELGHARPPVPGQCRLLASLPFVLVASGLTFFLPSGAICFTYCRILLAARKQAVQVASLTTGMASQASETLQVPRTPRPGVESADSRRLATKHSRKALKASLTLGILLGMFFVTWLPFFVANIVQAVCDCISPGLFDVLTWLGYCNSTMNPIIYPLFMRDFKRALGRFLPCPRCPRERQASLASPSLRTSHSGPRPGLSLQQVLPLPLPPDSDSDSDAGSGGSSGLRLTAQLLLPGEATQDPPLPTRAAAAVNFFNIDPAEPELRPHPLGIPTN
T5 sequence (P50406 whole entry): as above

`CN1CCN(c2cc(Cl)cc3c2c(=O)n(CCCc2ccccc2)c(=O)n3Cc2ccccc2)CC1` [Example 43, 1-benzyl-7-chloro-5-(4-methyl-piperazin-1-yl)-3-(3-phenyl-propyl)-1H-quinazoline-2,4-dione] gave a melting point of 55 to 63 °C. Moreover, on D4 (hD4.2 receptor), the IC50 is above 10000 nM. This compound showed an IC50 at D3 (hD3 receptor) of 1750 nM. The IC50 at D2 (hD2L receptor) amounted to 5670 nM. The same compound registered an IC50 in [1] of 2.7 nM. For the same compound, in series [2], the IC50 is 892 nM. Further, the IC50 in series [3] came out at 1420 nM. Also, the IC50 in series [4] was determined as 7760 nM. Further, the IC50 at D1 receptor amounted to 961 nM. The IC50 in series [5] was 2640 nM.
As for `CN1CCN(c2cc(Cl)cc3c2c(=O)n(Cc2ccc(F)cc2)c(=O)n3Cc2ccccc2)CC1` [Example 13, 1-benzyl-7-chloro-3-(4-fluoro-benzyl)-5-(4-methyl-piperazin-1-yl)-1H-quinazoline-2,4-dione], the melting point was 110 to 114 °C. Further, the IC50 at D4 (hD4.2 receptor) was above 10000 nM. The IC50 at D3 (hD3 receptor) was 2380 nM. On D2 (hD2L receptor), the IC50 is above 10000 nM. The compound also had an IC50 in [1] of 1.5 nM. In series [2], the IC50 came out at 1390 nM. The IC50 in series [3] turned out to be 1800 nM. Moreover, the IC50 in series [4] came out at 8640 nM. Also, in [6], the “antagonist activity compared with methiothepin” value is “weaker antagonist activity than methiothepin” and the “effect on serotonin-stimulated cAMP accumulation (in words)” value is listed as “identified as 5-HT6 receptor antagonists”. The IC50 in series [5] worked out at 2770 nM.
`CN1CCN(c2cc(Cl)cc3c2c(=O)n(CCc2ccccc2)c(=O)n3Cc2ccccc2)CC1` [Example 42, 1-benzyl-7-chloro-5-(4-methyl-piperazin-1-yl)-3-phenethyl-1H-quinazoline-2,4-dione] registered a melting point of 136 to 138 °C. Further, at D4 (hD4.2 receptor), the IC50 was above 10000 nM. Besides, the IC50 at D3 (hD3 receptor) was 638 nM. The IC50 on D2 (hD2L receptor) is 2500 nM. Also, in series [1], the IC50 stood at 0.5 nM. In [2], the IC50 came out at 244 nM. In addition, the IC50 in series [3] is 430 nM. The IC50 in [4] is 7030 nM. At D1 receptor, this compound registered an IC50 of 3450 nM. In series [5], the IC50 was determined as 1300 nM.
Regarding `CN1CCN(c2cc(Cl)cc3c2c(=O)n(Cc2ccccc2)c(=O)n3Cc2ccccc2)CC1` [Example 10, 1,3-dibenzyl-7-chloro-5-(4-methyl-piperazin-1yl)-1H-quinazoline-2,4-dione], the melting point lay within 113 to 116 °C. The IC50 at D4 (hD4.2 receptor) is above 10000 nM. At D3 (hD3 receptor), this compound showed an IC50 of 1550 nM. The IC50 on D2 (hD2L receptor) came out at 4350 nM. In series [1], this compound yielded an IC50 of 2.4 nM. Further, the IC50 in series [2] is 1690 nM. Besides, the IC50 in series [3] was determined as 4760 nM. For the same compound, the IC50 in [4] turned out to be 6780 nM. In addition, the IC50 at D1 receptor was 5560 nM. Moreover, the IC50 in [5] was 4590 nM.
Consider `C[C@@H](c1ccccc1)n1c(=O)c2c(N3CCNCC3)cc(Cl)cc2n(Cc2ccccc2)c1=O` [Example 69, 1-benzyl-7-chloro-3-[(S)-1-phenyl-ethyl]-5-piperazin-1yl-1H-quinazoline-2,4-dione], for which the IC50 is above 10000 nM on D4 (hD4.2 receptor); 1800 nM on D3 (hD3 receptor); above 10000 nM at D2 (hD2L receptor); 2.7 nM in [1]; 293 nM in series [2]; 429 nM in series [3]. The IC50 in [4] is 7890 nM; at D1 receptor, 8620 nM; in series [5], 5870 nM.
Take `O=c1c2c(N3CCNCC3)cc(Cl)cc2n(Cc2ccccc2)c(=O)n1Cc1ccccc1Br` [Example 60, 1-benzyl-3-(2-bromo-benzyl)-7-chloro-5-piperazin-1-yl-1H-quinazoline-2,4-dione]: the melting point is 94 to 97 °C. The “effect of compound alone on PPI versus vehicle control” value in [7] is listed as “no significant effects”. Moreover, the IC50 in [1] was found to be 3.9 nM.
`CN1CCN(c2cc(Cl)cc3c2c(=O)n(C)c(=O)n3Cc2ccccc2)CC1` [Example 1, 1-benzyl-7-chloro-3-methyl-5-(4-methyl-piperazin-1-yl)-1H-quinazoline-2,4-dione] came in with a melting point of 173 to 175 °C. In [1], this compound displayed an IC50 of 3 nM. In addition, in [6], the “antagonist activity compared with methiothepin” value was “weaker antagonist activity than methiothepin” and the “effect on serotonin-stimulated cAMP accumulation (in words)” value is on record as “identified as 5-HT6 receptor antagonists”.
Consider `O=c1c2c(N3CCNCC3)cc(Cl)cc2n(Cc2ccccc2)c(=O)n1CCCc1ccccc1` [Example 71, 1-benzyl-7-chloro-3-(3-phenyl-propyl)-5-piperazin-1-yl-1H-quinazoline-2,4-dione], for which the melting point lay within 62 to 68 °C. For the same compound, the IC50 at D4 (hD4.2 receptor) is above 10000 nM. Also, at D3 (hD3 receptor), the IC50 turned out to be 1200 nM. The IC50 at D2 (hD2L receptor) was determined as 2720 nM. The compound also registered an IC50 in [1] of 1.8 nM. Further, the IC50 in series [2] is 733 nM. Besides, the IC50 in series [3] is 1100 nM. For the same compound, in [4], the IC50 is 3050 nM. At D1 receptor, this compound had an IC50 of 2320 nM. For the same compound, the IC50 in series [5] turned out to be 891 nM.
With `C[C@@H](c1ccccc1)n1c(=O)c2c(N3CCN(C)CC3)cc(Cl)cc2n(Cc2ccccc2)c1=O` [Example 41, 1-benzyl-7-chloro-5-(4-methyl-piperazin-1yl)-3-[(S)-1-phenyl-ethyl]-1H-quinazoline-2,4-dione], the IC50 is above 10000 nM on D4 (hD4.2 receptor); 362 nM on D3 (hD3 receptor); 744 nM on D2 (hD2L receptor); 5 nM in series [1]; 160 nM in series [2]; 865 nM in series [3]. The results for the IC50 (in [4]; on D1 receptor; in series [5]) were 2740 nM, above 10000 nM and above 10000 nM, respectively.
As to `O=c1c2c(N3CCNCC3)cc(Cl)cc2n(Cc2ccccc2)c(=O)n1CCc1ccccc1` [Example 70, 1-benzyl-7-chloro-3-phenethyl-5-piperazin-1-yl-1H-quinazoline-2,4-dione], the IC50 is above 10000 nM on D4 (hD4.2 receptor); 2840 nM at D3 (hD3 receptor); 7440 nM at D2 (hD2L receptor); 0.6 nM in series [1]; 401 nM in series [2]; 752 nM in [3]. In addition, the IC50 was determined as 7710 nM in [4], 5710 nM at D1 receptor and 2910 nM in [5].
